# Structures can show the parent of a compound that is named as a salt. Where two headings read alike, the source gives them in different places.
# Key:
# human 5-HT1A receptors = target: T1, human 5-HT1A receptors (Homo sapiens, UniProt P08908); experiment: [3H] 8-OHDPAT displacement from 5-HT1A receptor in transfected CHO cells; type: binding
# T1 construct: expressed in transfected cells; host or cells: CHO cells
# T1 sequence (P08908 1-422): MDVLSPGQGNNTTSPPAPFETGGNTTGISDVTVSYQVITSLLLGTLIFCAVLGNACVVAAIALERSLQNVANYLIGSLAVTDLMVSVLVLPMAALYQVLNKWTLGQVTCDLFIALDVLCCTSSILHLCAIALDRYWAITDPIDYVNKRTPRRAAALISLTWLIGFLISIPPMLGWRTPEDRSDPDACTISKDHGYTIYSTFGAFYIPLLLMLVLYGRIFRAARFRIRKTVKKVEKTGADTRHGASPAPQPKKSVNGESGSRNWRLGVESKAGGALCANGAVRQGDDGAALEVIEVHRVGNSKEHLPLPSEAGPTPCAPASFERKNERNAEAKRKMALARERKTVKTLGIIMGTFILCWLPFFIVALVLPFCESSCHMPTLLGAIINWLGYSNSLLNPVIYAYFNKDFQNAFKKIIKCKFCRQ
# Excerpt: High affinity for the serotonin 5-HT1A receptor was established by testing the claimed compound's ability to displace [^3H] 8-OHDPAT (dipropylaminotetralin) from the 5-HT1A serotonin receptor following a modification of the procedure of Hall et al., J. Neurochem. 44, 1685 (1985) which utilizes CHO cells stably transfected with human 5-HT1A receptors.
# serotonin transporter = target: T2, serotonin transporter (Rattus norvegicus, UniProt P31652); experiment: 3H-paroxetine displacement from rat frontal cortical membranes (serotonin transporter affinity); type: binding
# T2 construct: displace ^3H-paroxetine from male rat frontal cortical membranes; from tissue; host or cells: male rat frontal cortex membranes
# [1] = target: T3, cloned human 5-HT1A receptors (Homo sapiens, UniProt P08908); experiment: 35S-GTPγS binding assay for antagonist activity at 5-HT1A receptors; type: biochemical; settings: membranes with cloned human 5-HT1A receptors, reversal of agonist 8-OHDPAT; for Emax: read-out: 5-HT1A Function (Imax), maximum inhibitory effect; for IC50: read-out: 5-HT1A Function IC50
# T3 construct: expressed in transfected cells
# T3 sequence (P08908 1-422): T1 sequence (P08908 1-422)
# Method: Antagonist activity at 5-HT1A receptors was established by using a ^35S-GTPγS binding assay similar to that used by Lazareno and Birdsall (Br. J. Pharmacol. 109: 1120, 1993), in which the test compound's ability to affect the binding of ^35S-GTPγS to membranes containing cloned human 5-HT1A receptors was determined. Agonists produce an increase in binding whereas antagonists produce no increase but rather reverse the effects of the standard agonist 8-OHDPAT. The test compound's maximum inhibitory effect is represented as the Imax, while its potency is defined by the IC50.
# [2] = displacement of [3H] 8-OHDPAT, CHO cells stably transfected with human 5-HT1A receptors, read-out: 5-HT1A Receptor Affinity KI
# [3] = displacement of 3H-paroxetine, male rat frontal cortical membranes, read-out: 5-HT Transporter Affinity KI
# T2 sequence (P31652 whole entry): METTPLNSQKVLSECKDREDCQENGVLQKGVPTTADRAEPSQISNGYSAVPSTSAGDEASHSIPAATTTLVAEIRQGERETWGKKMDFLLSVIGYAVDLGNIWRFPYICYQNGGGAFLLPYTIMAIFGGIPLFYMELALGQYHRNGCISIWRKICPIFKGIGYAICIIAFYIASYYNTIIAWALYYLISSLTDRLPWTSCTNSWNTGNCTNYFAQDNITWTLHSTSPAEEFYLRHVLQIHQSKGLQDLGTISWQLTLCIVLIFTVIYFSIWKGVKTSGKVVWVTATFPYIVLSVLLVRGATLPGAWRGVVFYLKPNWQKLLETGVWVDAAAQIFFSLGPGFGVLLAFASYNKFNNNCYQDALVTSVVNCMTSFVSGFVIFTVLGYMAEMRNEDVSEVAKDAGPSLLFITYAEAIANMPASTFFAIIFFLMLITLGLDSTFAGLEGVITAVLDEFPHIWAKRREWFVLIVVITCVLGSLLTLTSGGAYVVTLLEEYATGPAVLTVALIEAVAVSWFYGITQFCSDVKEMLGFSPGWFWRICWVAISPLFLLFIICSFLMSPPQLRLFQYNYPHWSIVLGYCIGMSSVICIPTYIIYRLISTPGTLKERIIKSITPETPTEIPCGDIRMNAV
SMILES,Ki (human 5-HT1A receptors) [nM],Ki (serotonin transporter) [nM],Emax [1] [%],IC50 [1] [nM],Ki (human 5-HT1A receptors; [2]) [nM],melting point [°C],Ki (serotonin transporter; [3]) [nM]
"Cc1ccc2c3c(ccc2n1)OCC(CN1CC=C(c2csc4ccc(F)cc24)CC1)O3 (stereo not shown) [Example 3, 2-[4-(5-Fluoro-benzo[b]thiophen-3-yl)-3,6-dihydro-2H-pyridin-1-ylmethyl]-8-methyl-2,3-dihydro-[1,4]dioxino[2,3-f]quinoline]",15.9,18.5,87.4,437,,,
"Cc1ccc2c3c(ccc2n1)OCC(CN1CC=C(c2csc4ccc(Cl)cc24)CC1)O3 (stereo not shown) [Example 13, 2-[4-(5-Chloro-benzo[b]thiophen-3-yl)-3,6-dihydro-2H-pyridin-1-ylmethyl]-8-methyl-2,3-dihydro-[1,4]dioxino[2,3-f]quinoline]",,94,100,2520,135,,
"Cc1ccc2c3c(ccc2n1)OCC(CN1CC=C(c2cc4ccccc4s2)CC1)O3 (stereo not shown) [Example 2, 2-(4-Benzo[b]thiophen-2-yl-3,6-dihydro-2H-pyridin-1-ylmethyl)-8-methyl-2,3-dihydro-[1,4]dioxino[2,3-f]quinoline]",,78,,,21.6,174 to 176,
"Cc1nc2ccc3c(c2o1)OC(CN1CC=C(c2csc4ccccc24)CC1)CO3 (stereo not shown) (as salt: oxalate) [Example 9, 8-(4-Benzo[b]thiophen-3-yl-3,6-dihydro-2H-pyridin-1-ylmethyl)-2-methyl-7,8-dihydro-[1,4]dioxino[2,3-g][1,3]benzoxazole]",,,,,,126 to 129,
"Fc1ccc2scc(C3=CCN(CC4COc5ccc6ncccc6c5O4)CC3)c2c1 (stereo not shown) [Example 5, 2-[4-(5-Fluoro-benzo[b]thiophen-3-yl)-3,6-dihydro-2H-pyridin-1-ylmethyl]-2,3-dihydro-[1,4]dioxino[2,3-f]quinoline]",23.4,35,30,1000,,,
"Cc1ccc2c3c(ccc2n1)OCC(CN1CC=C(c2cc4ccccc4o2)CC1)O3 (stereo not shown) [Example 11, 2-(4-Benzofuran-2-yl-3,6-dihydro-2H-pyridin-1-ylmethyl)-8-methyl-2,3-dihydro-[1,4]dioxino[2,3-f]quinoline]",15.7,,70,15500,,149 to 150,213
"Cc1ccc2c3c(ccc2n1)OCC(CN1CCC(c2cc4ccccc4o2)CC1)O3 (stereo not shown) [Example 12, 2-(4-Benzofuran-2-yl-piperidin-1-ylmethyl)-8-methyl-2,3-dihydro-[1,4]dioxino[2,3-f]quinoline]",,,100,590,8.67,103 to 104,109
"COc1cccc2c(C3=CCN(C[C@H]4COc5ccc6nc(C)ccc6c5O4)CC3)coc12 [Example 4, 2-[4-(7-Methoxy-benzofuran-3-yl)-3,6-dihydro-2H-pyridin-1-ylmethyl]-8-methyl-2,3-dihydro-[1,4]dioxino[2,3-f]guinoline]",2.66,70,91,167,,,
"Cc1nc2ccc3c(c2o1)OC(CN1CC=C(c2csc4ccccc24)CC1)CO3 (stereo not shown) [Example 9, 8-(4-Benzo[b]thiophen-3-yl-3,6-dihydro-2H-pyridin-1-ylmethyl)-2-methyl-7,8-dihydro-[1,4]dioxino[2,3-g][1,3]benzoxazole]",20.2,13,50,1980,,,
"Cc1ccc2c3c(ccc2n1)OCC(CN1CC=C(c2csc4ccccc24)CC1)O3 (stereo not shown) [Example 1, 2-(4-Benzo[b]thiophen-3-yl-3,6-dihydro-2H-pyridin-1-ylmethyl)-8-methyl-2,3-dihydro-[1,4]dioxino[2,3-f]quinoline]",4.89,9.25,100,499,,,
"Cc1ccc2c3c(ccc2n1)OCC(CN1CC=C(c2cccc4ccsc24)CC1)O3 (stereo not shown) (as salt: oxalate) [Example 10, 2-(4-Benzo[b]thiophen-7-yl-3,6-dihydro-2H-pyridin-1-ylmethyl)-8-methyl-2,3-dihydro-[1,4]dioxino[2,3-f]quinoline]",,,,,,183 to 185,
"C1=C(c2csc3ccccc23)CCN(CC2COc3ccc4[nH]ccc4c3O2)C1 (stereo not shown) [Example 7, 2-(4-Benzo[b]thiophen-3-yl-3,6-dihydro-2H-pyridin-1-ylmethyl)-2,3-dihydro-7H-[1,4]dioxino[2,3-e]indole]",4.74,2.48,100,25.8,,,
"C1=C(c2csc3ccccc23)CCN(CC2COc3ccc4ncccc4c3O2)C1 (stereo not shown) (as salt: oxalate) [Example 6, 2-(4-Benzo[b]thiophen-3-yl-3,6-dihydro-2H-pyridin-1-ylmethyl)-2,3-dihydro-[1,4]dioxino[2,3-f]quinoline]",,,,,,178 to 180,
"Cc1ccc2c3c(ccc2n1)OCC(CN1CC=C(c2csc4ccccc24)CC1)O3 (stereo not shown) (as salt: oxalate) [Example 1, 2-(4-Benzo[b]thiophen-3-yl-3,6-dihydro-2H-pyridin-1-ylmethyl)-8-methyl-2,3-dihydro-[1,4]dioxino[2,3-f]quinoline]",,,,,,129 to 133,
"C1=C(c2csc3ccccc23)CCN(CC2COc3ccc4ncccc4c3O2)C1 (stereo not shown) [Example 6, 2-(4-Benzo[b]thiophen-3-yl-3,6-dihydro-2H-pyridin-1-ylmethyl)-2,3-dihydro-[1,4]dioxino[2,3-f]quinoline]",14.5,8.5,100,146,,,
"Cc1ccc2c3c(ccc2n1)OCC(CN1CCC(c2nc4ccccc4o2)CC1)O3 (stereo not shown) [Example 14, 2-(4-Benzoxazol-2-yl-piperidin-1-ylmethyl)-8-methyl-2,3-dihydro-[1,4]dioxino[2,3-f]quinoline]",,,100,167,19.8,128 to 130,17
"Fc1ccc2scc(C3=CCN(C[C@H]4COc5ccc6[nH]ccc6c5O4)CC3)c2c1 [Example 8, 2-[4-(5-Fluoro-benzo[b]thiophen-3-yl)-3,6-dihydro-2H-pyridin-1-ylmethyl]-2,3-m-dihydro-7H-[1,4]dioxino[2,3-e]indole]",3.45,33,100,147,,,
"Cc1ccc2c3c(ccc2n1)OCC(CN1CC=C(c2cccc4ccsc24)CC1)O3 (stereo not shown) [Example 10, 2-(4-Benzo[b]thiophen-7-yl-3,6-dihydro-2H-pyridin-1-ylmethyl)-8-methyl-2,3-dihydro-[1,4]dioxino[2,3-f]quinoline]",34.9,10,40.5,392,,,
"Cc1ccc2c3c(ccc2n1)OCC(CN1CC=C(c2csc4ccc(F)cc24)CC1)O3 (stereo not shown) (as salt: oxalate) [Example 3, 2-[4-(5-Fluoro-benzo[b]thiophen-3-yl)-3,6-dihydro-2H-pyridin-1-ylmethyl]-8-methyl-2,3-dihydro-[1,4]dioxino[2,3-f]quinoline]",,,,,,197 to 201,
"Fc1ccc2scc(C3=CCN(CC4COc5ccc6ncccc6c5O4)CC3)c2c1 (stereo not shown) (as salt: oxalate) [Example 5, 2-[4-(5-Fluoro-benzo[b]thiophen-3-yl)-3,6-dihydro-2H-pyridin-1-ylmethyl]-2,3-dihydro-[1,4]dioxino[2,3-f]quinoline]",,,,,,183 to 185,

# Source: patent US7479500B2, “Antidepressant piperidine derivatives of heterocyclefused benzodioxans” (Wyeth, priority 2002, dated 2009)
